Data reported in PMC12951568, “Identifying Structural Factors Governing the Photodynamic Activity of Phthalocyanines” (Journal of Medicinal Chemistry, 2026).
Read-outs that look alike come from different tables or passages of the source.

Experiments:
[1] = Absorption and fluorescence emission spectra in DMF; assay type: physicochemical; conditions: in DMF
Procedure: (§1) An absorption spectrum of 2.475 mL of solvent (water, DMF, or PBS) was taken (i.e., absorption spectrum of baseline); then, 25 μL of stock solution was added to reach the final concentration of 1 μM in the cuvette, and the absorption and emission spectra were taken. Baseline of the solvent was subtracted from the obtained absorption spectrum to get the final absorption spectrum of the sample.

[2] = Fluorescence quantum yield, comparative method; assay type: physicochemical; conditions: in DMF; ZnPc as reference
Outline: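 ΦF determined by the comparative method against ZnPc (ΦF 0.32 in THF), using integrated emission area, absorbance at the excitation wavelength and solvent refractive index. Q-band absorbance kept below 0.05; estimated error ± 15%.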

[3] = Quantum yield of singlet oxygen production, comparative method with DPBF scavenger; assay type: physicochemical; conditions: in DMF, ZnPc as reference
Outline: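 Dye added from 100 μM DMF stock (or DMF/water, water); irradiated under stirring with xenon lamp through water filter and OG530 cut-off (>523 nm). DPBF decay followed at 415 nm; ΦΔ from ln(A0/At) slopes versus reference, normalised to absorbed light summed over 523–850 nm; triplicate means, ±10% error.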

[4] = Log P, partition between n-octanol and PBS; assay type: physicochemical; conditions: partition coefficient between 1-octanol and PBS
Outline: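 Sample from 100 μM stock added to equal volumes of n-octanol and PBS, vortexed 5 min at rt, centrifuged. Each layer diluted into DMF and emission spectra recorded; log P taken as log of octanol/PBS integrated fluorescence ratio, mean of triplicates.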

[5] = biological target: bovine serum albumin (BSA) (Bos taurus, UniProt P02769); assay: Interaction with bovine serum albumin (absorption and emission spectra in PBS); assay type: binding; conditions: 1 μM Pc in PBS, BSA 17.5, 35 and 100 μM
[6] = determined for nonionized analogues containing free carboxylic acid; ref number not given (footnote b); cited from earlier work
[7] = determined for nonionized analogues containing free carboxylic acid; ref number not given (footnote b); cited from earlier work; remark: listed apart in the source
[8] = test system: HeLa (human cervical carcinoma); conditions: ref number not given, cited from earlier work
[9] = test system: MCF-7 (human breast adenocarcinoma); design: method as in number not printed in Table 2; conditions: 12 h incubation, Xe-lamp 15 min, λ > 570 nm, 11.2 J/cm^2; mean ± SD; determined previously under the same conditions at the same workplace and published; ref number not given; cited from earlier work
[10] = Aggregation / monomerization in aqueous media (spectra in water and PBS); assay type: physicochemical; conditions: 1 μM
Procedure: as §1

[11] = test system: MCF-7 (human breast adenocarcinoma); assay: Photodynamic activity (phototoxicity, neutral red uptake) on MCF-7; assay type: cell-based; conditions: 12 h incubation, Xe-lamp 15 min, λ > 570 nm, 11.2 J/cm^2; mean ± SD; t.w. = this work
[12] = test system: SK-MEL-28 (human skin melanoma); design: method as in number not printed in Table 2; conditions: 12 h incubation, Xe-lamp 15 min, λ > 570 nm, 11.2 J/cm^2; mean ± SD; determined previously under the same conditions at the same workplace and published; ref number not given; cited from earlier work
[13] = Fluorescence lifetime in DMF; assay type: physicochemical
Description: 1 Photophysical Data of Investigated Derivatives in DMF ^a | column: τF1/ns; τF2/ns

[14] = 12 h incubation, Xe-lamp 15 min, λ > 570 nm, 11.2 J/cm^2, mean ± SD, determined previously under the same conditions at the same workplace and published, read-out: EC50 (nM) HeLa

Chain of bovine serum albumin (BSA) (P02769 25-607): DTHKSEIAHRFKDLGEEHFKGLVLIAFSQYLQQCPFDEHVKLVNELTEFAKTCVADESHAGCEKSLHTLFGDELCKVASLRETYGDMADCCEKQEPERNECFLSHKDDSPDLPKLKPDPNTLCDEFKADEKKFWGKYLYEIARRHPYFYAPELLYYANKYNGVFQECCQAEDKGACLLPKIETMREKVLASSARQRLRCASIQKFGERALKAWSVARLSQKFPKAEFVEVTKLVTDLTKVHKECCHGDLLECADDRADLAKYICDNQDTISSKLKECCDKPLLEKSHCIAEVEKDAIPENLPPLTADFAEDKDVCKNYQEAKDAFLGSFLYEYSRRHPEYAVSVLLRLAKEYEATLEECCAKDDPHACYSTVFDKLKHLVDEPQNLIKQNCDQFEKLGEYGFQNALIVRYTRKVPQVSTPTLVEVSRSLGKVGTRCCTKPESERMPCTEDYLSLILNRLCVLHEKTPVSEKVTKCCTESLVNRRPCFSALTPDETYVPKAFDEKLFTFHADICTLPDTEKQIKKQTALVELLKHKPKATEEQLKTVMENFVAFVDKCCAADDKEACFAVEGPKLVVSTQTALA

Row | SMILES | ε, extinction coefficient [1] | λA, absorption maximum in the Q-band [1] | λF, fluorescence emission maximum [1] | ΦF, fluorescence quantum yield [2] | ΦΔ, quantum yield of singlet oxygen production [3] | Log P [4] | Interaction with BSA: disaggregation/monomerization and changes in absorption and fluorescence emission spectra [5] | quenching of excited states upon BSA addition (decrease in Q-band maximum and fluorescence intensity) [5] | ΦF, fluorescence quantum yield of nonionized analogue [6] | ΦΔ, quantum yield of singlet oxygen production of nonionized analogue [7] | EC50 [8, 14] | EC50 [9] | aggregation / monomeric state [10] | EC50 ([8]; same irradiation conditions, previously published per Table 2, read-out: EC50 (HeLa)) | EC50 [11] | EC50 [12] | τF1, fluorescence lifetime (relative amplitude in brackets) [13]
1 | O=C([O-])c1cc(Oc2cc3c(cc2Oc2cc(C(=O)[O-])cc(C(=O)[O-])c2)C2=Nc4c5cc(Oc6cc(C(=O)[O-])cc(C(=O)[O-])c6)c(Oc6cc(C(=O)[O-])cc(C(=O)[O-])c6)cc5c5[n]4[Zn][n]4c(c6cc(Oc7cc(C(=O)[O-])cc(C(=O)[O-])c7)c(Oc7cc(C(=O)[O-])cc(C(=O)[O-])c7)cc6c4=NC4=NC(=N5)c5cc(Oc6cc(C(=O)[O-])cc(C(=O)[O-])c6)c(Oc6cc(C(=O)[O-])cc(C(=O)[O-])c6)cc54)=NC3=N2)cc(C(=O)[O-])c1.[Na+].[Na+].[Na+].[Na+].[Na+].[Na+].[Na+].[Na+].[Na+].[Na+].[Na+].[Na+].[Na+].[Na+].[Na+].[Na+] [A3Zn] | 172 640 M^–1cm^–1 | 677 nm | 688 nm | 0.03 | 0.24 | –2.88 | slight bathochromic shift in the Q-band accompanied by partial quenching of the excited states | negligible | 0.19 | 0.42 | 5160 ± 1030 nM | 3470 ± 670 nM | – | – | – | – | –
2 | O=C([O-])c1cc(C(=O)[O-])cc(-c2cc3c(cc2-c2cc(C(=O)[O-])cc(C(=O)[O-])c2)C2=Nc4c5cc(-c6cc(C(=O)[O-])cc(C(=O)[O-])c6)c(-c6cc(C(=O)[O-])cc(C(=O)[O-])c6)cc5c5[n]4[Zn][n]4c(c6cc(-c7cc(C(=O)[O-])cc(C(=O)[O-])c7)c(-c7cc(C(=O)[O-])cc(C(=O)[O-])c7)cc6c4=NC4=NC(=N5)c5cc(-c6cc(C(=O)[O-])cc(C(=O)[O-])c6)c(-c6cc(C(=O)[O-])cc(C(=O)[O-])c6)cc54)=NC3=N2)c1.[Na+].[Na+].[Na+].[Na+].[Na+].[Na+].[Na+].[Na+].[Na+].[Na+].[Na+].[Na+].[Na+].[Na+].[Na+].[Na+] [A4Zn] | 168 630 M^–1cm^–1 | 694 nm | 708 nm | 0.01 | – | –3.32 | slight bathochromic shift in the Q-band accompanied by partial quenching of the excited states | negligible | 0.12 | 0.45 (0.45) ^b | – | 5090 ± 1240 nM | monomeric in water | 10300 nM | – | – | –
3 | CC[N+](CC)(CC)CCSc1cc2c(cc1SCC[N+](CC)(CC)CC)C1=Nc3c4cc(SCC[N+](CC)(CC)CC)c(SCC[N+](CC)(CC)CC)cc4c4[n]3[Zn][n]3c(c5cc(SCC[N+](CC)(CC)CC)c(SCC[N+](CC)(CC)CC)cc5c3=NC3=NC(=N4)c4cc(SCC[N+](CC)(CC)CC)c(SCC[N+](CC)(CC)CC)cc43)=NC2=N1.[I-].[I-].[I-].[I-].[I-].[I-].[I-].[I-] [C8Zn] | 281 600 M^–1cm^–1 | 704 nm | 714 nm | 0.29 | 0.63 | –1.59 | – | – | – | – | 540 ± 90 nM | – | did not sufficiently suppress aggregation | – | 280 ± 40 nM | 320 ± 48 nM | –
4 | CC[N+](CC)(CC)CCSc1ccc(SCC[N+](CC)(CC)CC)c2c1C1=NC2=Nc2c3c(SCC[N+](CC)(CC)CC)ccc(SCC[N+](CC)(CC)CC)c3c3[n]2[Zn][n]2c(c4c(SCC[N+](CC)(CC)CC)ccc(SCC[N+](CC)(CC)CC)c4c2=NC2=NC(=N3)c3c(SCC[N+](CC)(CC)CC)ccc(SCC[N+](CC)(CC)CC)c32)=N1.[I-].[I-].[I-].[I-].[I-].[I-].[I-].[I-] [C9Zn] | 134 170 M^–1cm^–1 | 757 nm | 783 nm | 0.06 | 0.64 | –1.65 | – | – | – | – | 310 ± 121 nM | – | did not sufficiently suppress aggregation | – | 210 ± 10 nM | 220 ± 21 nM | –
5 | Cc1cc(Cn2cc[n+](C)c2)c(Oc2c3c(c(C)c(C)[n+]2C)C2=Nc4c5c(Oc6c(Cn7cc[n+](C)c7)cc(C)cc6Cn6cc[n+](C)c6)[n+](C)c(C)c(C)c5c5[n]4[Zn][n]4c(c6c(C)c(C)[n+](C)c(Oc7c(Cn8cc[n+](C)c8)cc(C)cc7Cn7cc[n+](C)c7)c6c4=NC4=NC(=N5)c5c4c(C)c(C)[n+](C)c5Oc4c(Cn5cc[n+](C)c5)cc(C)cc4Cn4cc[n+](C)c4)=NC3=N2)c(Cn2cc[n+](C)c2)c1.[I-].[I-].[I-].[I-].[I-].[I-].[I-].[I-].[I-].[I-].[I-].[I-] [C11Zn] | 160 750 M^–1cm^–1 | 716 nm | 726 nm | 0.21 | 0.53 | –2.25 | – | – | – | – | 3.8 ± 0.2 nM | 2.8 ± 0.1 nM | full monomerization | – | – | 3.8 ± 0.6 nM | 1.41 ns
6 | Cc1cc(OCc2cn(CCOCCOCCO)nn2)c(Oc2cc3c(cc2Oc2c(OCc4cn(CCOCCOCCO)nn4)cc(C)cc2OCc2cn(CCOCCOCCO)nn2)C2=Nc4c5ccccc5c5[n]4[Zn][n]4c(c6ccccc6c4=NC3=N2)=NC2=NC(=N5)c3ccccc32)c(OCc2cn(CCOCCOCCO)nn2)c1 [N3Zn] | 280 340 M^–1cm^–1 | 672 nm | 681 nm | 0.28 | 0.48 | 1.90 | – | – | – | – | 2200 ± 160 nM | 1500 ± 300 nM | – | – | – | 900 ± 200 nM | –
7 | Cc1cc(OCc2cn(CCO[C@@H]3O[C@H](CO)[C@@H](O)[C@H](O)[C@H]3O)nn2)c(Oc2cc3c(cc2Oc2c(OCc4cn(CCO[C@@H]5O[C@H](CO)[C@@H](O)[C@H](O)[C@H]5O)nn4)cc(C)cc2OCc2cn(CCO[C@@H]4O[C@H](CO)[C@@H](O)[C@H](O)[C@H]4O)nn2)C2=Nc4c5ccccc5c5[n]4[Zn][n]4c(c6ccccc6c4=NC3=N2)=NC2=NC(=N5)c3ccccc32)c(OCc2cn(CCO[C@@H]3O[C@H](CO)[C@@H](O)[C@H](O)[C@H]3O)nn2)c1 [N4Zn] | 293 750 M^–1cm^–1 | 672 nm | 681 nm | 0.29 | 0.59 | –0.65 | – | – | – | – | 2070 ± 60 nM | 1200 ± 100 nM | – | – | – | 500 ± 100 nM | –
